{"source": "patent US10588963B2", "about": "“Methods for providing adjuvanted virosomes and adjuvanted virosomes obtainable thereby” (Bestewil Holding B.V., priority 2014, dated 2020)", "experiment": "Equilibrium density gradient centrifugation of adjuvanted RSV virosomes", "format": "physicochemical", "conditions": "10-60% sucrose gradient, spun 66 hrs, after overnight storage at 4° C.", "protocol": "To 975 μl of virosomes, containing 850 nmol of phospholipids, 25 μl of DMSO solution containing 153 nmol of 3-D-PHAD was rapidly added while agitating the sample on a vortex mixer. After overnight storage at 4° C., the density of the virosomes was analyzed by equilibrium density gradient centrifugation loaded on 10-60% sucrose gradients, which were spun for 66 hrs in a Sorvall AH 650 rotor at 50 krpm. […] Samples from the gradient were analyzed for sucrose concentration by refractometry, giving a measure of density, phosphate (both lipid and 3-D-PHAD), and protein.\nThe above adjuvant solutions were added to four tubes with 950 μl of virosomes each, containing 850 nmol of phospholipids, with rapid mixing on a vortex. After overnight storage at 4° C., the density of the virosomes was analyzed by equilibrium density gradient centrifugation on 10-60% sucrose gradients, which were spun for 66 hrs in a Sorvall AH 650 rotor at 120 000 g. Samples from the gradient were analyzed for density, phosphate (both lipid and 3 DPHAD), and protein.", "data": [{"smiles": "CCCCCCCCCCCCCC(=O)O[C@H](CCCCCCCCCCC)CC(=O)O[C@@H]1[C@@H](NC(=O)C[C@@H](CCCCCCCCCCC)OC(=O)CCCCCCCCCCC)[C@H](OC[C@H]2O[C@H](O)[C@H](NC(=O)C[C@H](O)CCCCCCCCCCC)[C@@H](O)[C@@H]2O)O[C@H](CO)[C@H]1OP(=O)(O)O.N", "note": "[3-D-PHAD]", "values": [{"measurement": "density of band in equilibrium density gradient", "result": "around 1.12 g/ml"}]}]}
